The values that follow come from US9561278B2, “Derivatized hyperbranched polyglycerols” (THE UNIVERSITY OF BRITISH COLUMBIA, priority 2010, dated 2017).

The test system of data set [1] is KU-7-luc bladder cancer cells. The data set is described as follows: Cytotoxicity evaluation, MTS cell proliferation assay. In kind it is cell-based. The note with it: cisplatin concentration. As for the experimental part: Cytotoxicity studies were performed using the MTS cell proliferation assay (Promega, Madison, Wis.). […] In this study, KU-7-luc bladder cancer cells, kindly provided by Dr. M. Tachibana (Keio University, Tokyo, Japan). The cells were plated at 5000 cells/well into 96-well plates in 180 μL of Dulbecco's modified Eagle (DMEM) medium (Invitrogen Canada, Inc., Burlington, ON) supplemented with 10% fetal bovine serum (FBS) (Invitrogen Canada, Inc., Burlington, ON), 1% penicillin-streptomycin, and 1% L-glutamine and allowed to grow for 24 h at 37° C. in 5% CO2 to reach approximately 80% confluence for cytotoxicity assays. Cells were then incubated for 2 or 72 h with HPGs alone, ranging from 0.01-100 mg/mL, or free cisplatin or cisplatin-loaded HPGs with drug concentrations ranging from 0.01-100 μg/mL. After treatment, the cells were washed twice with Hank's balanced salt solution (HBSS) and 180 μL of fresh culture media was added into each well and cells were allowed to grow for 72 h. Proliferation of these cells was measured using a CellTiter 96 aqueous non-radioactive cell proliferation assay (Promega, Madison, Wis.) as described previously (Mugabe, C.; Hadaschik, B. A.; Kainthan, R. K.; Brooks, D. E.; So, A. I.; Gleave, M. E.; Burt, H. M. BJU Int. 2009, 103, 978-986). […] The absorbance was measured at 490 nm with a reference of 620 nm using a microplate reader.
On the technique in general: Tetrazolium assays rely on reduction of a dye to a coloured formazan, in cell work by metabolically active cells.

A short description of data set [2]: In vitro cisplatin release by dialysis. In kind it is physicochemical. The note with it: PBS, 37° C. As for the experimental part:
Cisplatin was bound to the carboxylate modified HPGs as described above with final polymer and cisplatin concentrations of 10 and 1 mg/mL, respectively. Into 7000 MWCO Slide-A-Lyzer mini dialysis units (Thermo Scientific, Rockford, Ill.), 20 μL of cisplatin bound polymer solution, or a 1 mg/mL solution of free cisplatin, were added and the samples were dialyzed at 37° C. with stirring against 4 L of 1 mM PBS adjusted to pHs of 4.5, 6.0, and 7.4 or synthetic urine at pH 7.0. Synthetic urine (Surine) was purchased from Dyna-Tek Industries (Lenexa, Kans.). At predetermined time points, three dialysis units were removed from the release media, and the entire contents were removed with three washings of the dialysis unit followed by dilution to 1 mL with fresh release media. The cisplatin concentration of contents of the dialysis units was determined by OPDA colorimetric assay. The cumulative percent drug released was calculated by subtracting the amount of drug remaining from the initial amount of drug in the dialysis bag at the beginning of the experiment. The data were expressed as cumulative percentage of drug released as a function of time.

For data set [3] the following is noted: cited from earlier work.

Structures are written as SMILES. ≈ marks a conversion by molar mass, not a printed value. Where only a bound is given, the exact number is not on record here.

Usually IC50 stands for the concentration that gives 50% inhibition. High values mean weaker potency in that assay, low ones greater potency in that assay. `N.N.[Cl][Pt][Cl]` [free cisplatin, cisplatin]: the IC50 result in data set [1] (2 h incubation) is “approximately 10 μg/mL”; in data set [1] (72 h incubation), 1 µg/mL. The “time to 100% complete release” value in data set [2] is at most 7 h.

As usually defined, the aqueous solubility is how much of the substance goes into solution per volume. Take `CC(=O)O[C@@]12CO[C@@H]1C[C@H](O)[C@@]1(C)C(=O)[C@H](O)C3=C(C)[C@@H](OC(=O)[C@H](O)[C@@H](NC(=O)OC(C)(C)C)c4ccccc4)C[C@@](O)([C@@H](OC(=O)c4ccccc4)[C@H]21)C3(C)C` [DTX, docetaxel]: the aqueous solubility in data set [3] was around 7 µg/mL (≈ 8.66 µM).
